Earlier results, collected in US8148574B2, “Method for producing 5-aminolevulinic acid hydrochloride” (Cosmo Oil Co., Ltd., priority 2005, dated 2012).

Conditions: in water, at room temperature; depends on pH, temperature and coexisting solute

solubility: ≥ 3000 mM
Structure (SMILES): Cl.NCC(=O)CCC(=O)O [5-aminolevulinic acid hydrochloride]
